# Experimental data: patent US4818761A, “2-(4-pyridylaminomethyl)-benzimidazole derivatives having antiviral activity” (priority 1986, dated 1989)
# Experiments:
# in vitro = details: monkey, llc-mk2 cells
# [1] = system: coxsackievirus type B4 (CB4); assay: Inhibition of CB4 plaque formation in LLC-MK2 cells; type: cell-based; details: for CI CB4 (C)/(A): CI = CD50 (LLC-MK2)/IC50 (plaque); for IC50: Coxsackievirus, plaque reduction, LLC-MK2 cells, 37° C.
# [2] = system: rhinovirus type 14 (HRV14); assay: Inhibition of HRV14 plaque formation in HeLa cells; type: cell-based; details: Enterovirus, HRV14; plaque reduction, HeLa cells, 33° C.
# [3] = system: enterovirus type 70 (EV70); assay: Inhibition of EV70 plaque formation in LLC-MK2 cells; type: cell-based; details: for CI EV70 (C)/(A): CI = CD50 (LLC-MK2)/IC50 (plaque); for IC50: Enterovirus D, plaque reduction, LLC-MK2 cells, 33° C.
# [4] = system: poliovirus type 2 (Polio2); assay: microbe, parasite or virus in culture; type: cell-based; details: for IC50: Enterovirus C, LLC-MK2, read-out: IC50 Polio2; for CI Polio2 (C)/(A): CI = CD50 (LLC-MK2)/IC50 (plaque)
# [5] = system: enterovirus type 70 (EV70); assay: Inhibition of EV70 cytopathogenic effect (CPE) in LLC-MK2 cells; type: cell-based; details: for IC50: Enterovirus D, * Virus CPE inhibition assay, LLC-MK2 cells, 33° C.
# [6] = system: coxsackievirus type B4 (CB4); assay: Inhibition of CB4 cytopathogenic effect (CPE) in LLC-MK2 cells; type: cell-based; details: for CI CB4 (C)/(A): CI = CD50 (LLC-MK2)/IC50 (virus CPE); for IC50: Coxsackievirus, * Virus CPE inhibition assay, LLC-MK2 cells, 37° C.
Structure (SMILES),CC50 (in vitro),CI CB4 (C)/(A) [1],IC50 [1],IC50 [2],CI EV70 (C)/(A) [3],IC50 [3],IC50 [4],IC50 [5],CI Polio2 (C)/(A) [4],CI CB4 (C)/(A) [6],IC50 [6],CI EV70 (C)/(A) ([5]; CI = CD50 (LLC-MK2)/IC50 (virus CPE))
Ic1ccc2[nH]c(CNc3ccncc3)nc2c1 [III],> 100 µg/mL,> 3,33 µg/mL,6.2 µg/mL,> 15,6.5 µg/mL,> 100 µg/mL,,,,,
c1ccc(-c2ccc3[nH]c(CNc4ccncc4)nc3c2)cc1 [IX],> 100 µg/mL,,,,,,,> 100 µg/mL,,,,
"CC(C)CCn1c(CNc2ccncc2)nc2ccccc21.Cl [L, 1-isoamyl-2-(4-pyridylaminomethyl)benzimidazole hydrochloride]",1410 µg/mL,"4,159",0.34 µg/mL,> 100 µg/mL,"1,010",1.4 µg/mL,4.3 µg/mL,,329,,,
OCCCCn1c(CNc2ccncc2)nc2ccccc21 [LII],> 100 µg/mL,,,,,,,> 100 µg/mL,,> 6,17.8 µg/mL,
c1ccc(CCCn2c(CNc3ccncc3)nc3ccccc32)cc1 [LVI],> 100 µg/mL,,,,,,,> 100 µg/mL,,,> 100 µg/mL,
Cc1cccc(-n2c(CNc3ccncc3)nc3ccccc32)c1 [LXIII],> 100 µg/mL,,,,> 18,5.6 µg/mL,,,,> 18,5.6 µg/mL,
Cc1ccccc1-n1c(CNc2ccncc2)nc2ccccc21 [LXII],> 100 µg/mL,,,,,,,> 100 µg/mL,,,> 100 µg/mL,
FC(F)(F)c1ccc(-n2c(CNc3ccncc3)nc3ccccc32)cc1 [LXIV],> 100 µg/mL,,,,,,,> 100 µg/mL,,> 18,5.6 µg/mL,
Clc1ccc(-n2c(CNc3ccncc3)nc3ccccc32)cc1Cl [LXIX],> 100 µg/mL,,,,,,,5.6 µg/mL,,> 18,5.6 µg/mL,> 18
Ic1ccc(-n2c(CNc3ccncc3)nc3ccccc32)cc1 [LXI],> 100 µg/mL,,,,,,,> 100 µg/mL,,,> 100 µg/mL,
COc1ccc(-n2c(CNc3ccncc3)nc3ccccc32)cc1 [LXVIII],> 100 µg/mL,,,,,,,> 100 µg/mL,,> 18,5.6 µg/mL,
COc1ccccc1-n1c(CNc2ccncc2)nc2ccccc21 [LXVII],,,,,,,,> 100 µg/mL,,,> 100 µg/mL,
CCc1ccc(-n2c(CNc3ccncc3)nc3ccccc32)cc1 [LXVI],> 100 µg/mL,> 37,2.7 µg/mL,> 100 µg/mL,,> 100 µg/mL,> 100 µg/mL,,,,,
CC(C)(C)c1ccc2[nH]c(CNc3ccncc3)nc2c1 [VIII],> 100 µg/mL,,,,,,,> 100 µg/mL,,,,
CCCCc1ccc2[nH]c(CNc3ccncc3)nc2c1 [VII],56.2 µg/mL,,,,3,17.8 µg/mL,,,,,,
CCCc1ccc2[nH]c(CNc3ccncc3)nc2c1 [V],354 µg/mL,,> 100 µg/mL,,93,3.8 µg/mL,> 100 µg/mL,,,,,
"CC(C)n1c(CNc2ccncc2)nc2ccccc21.Cl [XIII, 1-isopropyl-2-(4-pyridylaminomethyl)benzimidazole hydrochloride]",> 100 µg/mL,> 1,85 µg/mL,,,,,> 100 µg/mL,,,,
CC=Cn1c(CNc2ccncc2)nc2ccccc21 [XIV],> 2000 µg/mL,> 36,56.2 µg/mL,,,,,> 100 µg/mL,,,,

Structure (SMILES),CC50 (in vitro),CI CB4 (C)/(A) [1],IC50 [1],IC50 [2],CI EV70 (C)/(A) [3],IC50 [3],IC50 [4],IC50 [5],CI Polio2 (C)/(A) [4],CI CB4 (C)/(A) [6],IC50 [6],CI EV70 (C)/(A) ([5]; CI = CD50 (LLC-MK2)/IC50 (virus CPE))
CCCCCCCCn1c(CNc2ccncc2)nc2ccccc21 [XIX],354 µg/mL,24,14.8 µg/mL,,,,,> 100 µg/mL,,,,
CCn1c(CNc2ccncc2)nc2ccccc21 [XI],5660 µg/mL,"1,768",3.2 µg/mL,,,,,> 100 µg/mL,,,,
CCCCn1c(CNc2ccncc2)nc2cc(C)ccc21 [XLII],1410 µg/mL,"1,010",1.4 µg/mL,> 50 µg/mL,240,5.9 µg/mL,27.6 µg/mL,,51,,,
CCCCCCn1c(CNc2ccncc2)nc2ccccc21 [XVIII],707 µg/mL,544,1.3 µg/mL,,16,44 µg/mL,> 100 µg/mL,,,,,
CCCCCn1c(CNc2ccncc2)nc2ccccc21 [XVI],1410 µg/mL,"> 2,828",< 0.5 µg/mL,> 50 µg/mL,643,2.2 µg/mL,19 µg/mL,,74,,,
CCCCn1c(CNc2ccncc2)nc2ccccc21 [XV],> 2000 µg/mL,"> 5,405",0.37 µg/mL,> 50 µg/mL,"> 1,429",1.4 µg/mL,3.2 µg/mL,,> 625,,,
Fc1ccc(-n2c(CNc3ccncc3)nc3ccccc32)cc1 [XXIII],> 2000 µg/mL,"> 2,410",0.83 µg/mL,30 µg/mL,"> 1,818",1.1 µg/mL,7.8 µg/mL,,> 256,,,
Cc1ccc(-n2c(CNc3ccncc3)nc3ccccc32)cc1 [XXII],1410 µg/mL,"2,946",0.48 µg/mL,38 µg/mL,"2,719",0.52 µg/mL,> 10 µg/mL,,,,,
c1ccc(-n2c(CNc3ccncc3)nc3ccccc32)cc1 [XXI],1410 µg/mL,943,1.5 µg/mL,> 50 µg/mL,943,1.5 µg/mL,48 µg/mL,,29,,,
"CCc1cc2[nH]c(CNc3ccncc3)nc2cc1Br [XXXI, 2-(4-pyridylaminomethyl)-5(6)-ethyl-6(5)-bromobenzimidazole]",88.4 µg/mL,,> 10 µg/mL,1.4 µg/mL,74,1.2 µg/mL,82 µg/mL,,1,,,
CCc1cc2nc(CNc3ccncc3)[nH]c2cc1Cl [XXXII],88.4 µg/mL,7,12.5 µg/mL,< 1 µg/mL,134,0.66 µg/mL,35 µg/mL,,3,,,
COc1cc2nc(CNc3ccncc3)[nH]c2cc1OC [XXXIV],> 100 µg/mL,,,,,,,> 100 µg/mL,,,,
Cn1c(CNc2ccncc2)nc2ccc(Cl)cc21 [XXXIX],> 100 µg/mL,> 1,82 µg/mL,> 50 µg/mL,> 2,50 µg/mL,> 100 µg/mL,,,,,
Cc1ccc2c(c1)nc(CNc1ccncc1)n2C [XXXVI],> 100 µg/mL,,,,,,,> 100 µg/mL,,,,
Fc1cc2nc(CNc3ccncc3)[nH]c2cc1Cl [XXXV],> 100 µg/mL,> 3,34 µg/mL,15.5 µg/mL,> 15,6.8 µg/mL,> 100 µg/mL,,,,,
Cc1cc2nc(CNc3ccncc3)[nH]c2cc1F [XXX],> 100 µg/mL,,> 50 µg/mL,8.6 µg/mL,> 8,12 µg/mL,> 100 µg/mL,,,,,
OCCn1c(CNc2ccncc2)nc2ccccc21 [XX],> 2000 µg/mL,,> 100 µg/mL,,,,,> 100 µg/mL,,,,
Cn1c(CNc2ccncc2)nc2ccccc21 [X],> 1000 µg/mL,> 31,32 µg/mL,> 100 µg/mL,> 30,33 µg/mL,170 µg/mL,,> 6,,,
